Data on 16 molecules can be found in patent US20240398805A1, “QUINAZOLINE DERIVED COMPOUNDS AS EGFR INHIBITORS AND THEIR USES THEREOF” (ACCUTAR BIOTECHNOLOGY INC., priority 2021, published 2024).

Common to all, as to format: cell-based
Assay [1] has as its system HCC827-ASV cells (human EGFR exon 20 insertion mutant A769_D770insASV). Kind of assay: Cell growth inhibition (CellTiter-Glo, 3 days) in HCC827-ASV. To be noted: 72 h, 3 days after administration. An outline of the steps: (§1)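 Growth inhibition used a CellTiter-Glo luminescence read-out after 3 days of compound exposure at various concentrations. Cells were plated the day before at 5000/well in RPMI plus 10% FBS. The lines are HCC827 transduced by lentivirus with codon-optimized EGFR ASV or ERBB2 YVMA exon 20 insertions.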

The test system of another assay is A431 cells. Kind of assay: Cell growth inhibition (CellTiter-Glo, 3 days) in A431. Conditions: Homo sapiens, A-431, 72 h, 3 days after administration. An outline of the steps: (§2)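 HCC827 cells in RPMI/10% FBS and A431 cells in DMEM/10% FBS were seeded at 5000 cells/well and left overnight. Compound was then added over a concentration range for 3 days of incubation, and viability was read by CellTiter-Glo luminescence.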

The subject of assay [2] is HCC827-YVMA cells (human ERBB2 exon20 insertion mutant A775_G776ins YVMA). As to the kind of experiment: Cell growth inhibition (CellTiter-Glo, 3 days) in HCC827-YVMA. To be noted: 72 h, 3 days after administration. Put shortly:
as §1

A further assay has as its system HCC827 cells. Kind of assay: Cell growth inhibition (CellTiter-Glo, 3 days) in HCC827. To be noted: Homo sapiens, 72 h, 3 days after administration. Put shortly: as §2
Assay [3] relates to HCC827-SVD cells (human EGFR exon 20 insertion mutant D770_N771 insSVD). As to the kind of experiment: Cell growth inhibition (CellTiter-Glo, 3 days) in HCC827-SVD. To be noted: 72 h, 3 days after administration. An outline of the steps: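 HCC827 cells carrying lentiviral codon-optimized EGFR D770_N771 insSVD, with endogenous EGFR knocked out by CRISPR (single clone), seeded at 5000 cells/well in RPMI with 10% FBS. Viability read by CellTiter-Glo luminescence.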

Turning to `C=CC(=O)N1CCC(Nc2cc3c(Nc4ccc(Oc5ccn(-c6ccc(OC)nc6)n5)cc4F)ncnc3cc2OC)CC1` [Compound 12, 1-(4-((4-((2-fluoro-4-((1-(6-methoxypyridin-3-yl)-1H-pyrazol-3-yl)oxy)phenyl)amino)-7-methoxyquinazolin-6-yl)amino)piperidin-1-yl)prop-2-en-1-one], the GI50 is less than 30 nM in assay [1]; 100 to 300 nM in the assay with A431 cells; less than 30 nM in assay [2]; 30 to 60 nM in the assay with HCC827 cells; less than 30 nM in assay [3].

As to `C=CC(=O)N1CCC(Nc2cc3c(Nc4ccc(Oc5ccnc(N6CCO[C@@H](CO)C6)c5)cc4F)ncnc3cc2OC)CC1` [Example 124, (R)-1-(4-((4-((2-fluoro-4-((2-(2-(hydroxymethyl)morpholino)pyridin-4-yl)oxy)phenyl)amino)-7-methoxyquinazolin-6-yl)amino)piperidin-1-yl)prop-2-en-1-one], the GI50 in assay [1] is 30 to 60 nM; in the assay on A431 cells, not below 1000 nM; in assay [2], 60 to 100 nM; in the assay with HCC827 cells, 600 to 1000 nM; in assay [3], 30 to 60 nM.

Consider `C=CC(=O)N1CCC(Nc2cc3c(Nc4ccc(Oc5ccnc(N6C7CCC6COC7)c5)cc4F)ncnc3cc2OC)CC1` [Example 136, 1-(4-((4-((4-((2-(3-oxa-8-azabicyclo[3.2.1]octan-8-yl)pyridin-4-yl)oxy)-2-fluorophenyl)amino)-7-methoxyquinazolin-6-yl)amino)piperidin-1-yl)prop-2-en-1-one], for which the concentration for 50% growth inhibition (GI50) in assay [1] was in the range of 30 to 60 nM; with A431 cells, 600 to 1000 nM; in assay [2] it was 30 to 60 nM; in the assay on HCC827 cells, 300 to 600 nM; in assay [3], 30 to 60 nM.

As for `C=CC(=O)N1CCC(Nc2cc3c(Nc4ccc(Oc5ccnc(N6CCC(C)(C#N)C6)c5)cc4F)ncnc3cc2OC)CC1` (centres unmarked) [Example 262, 1-(4-(4-((6-((1-acryloylpiperidin-4-yl)amino)-7-methoxyquinazolin-4-yl)amino)-3-fluorophenoxy)pyridin-2-yl)-3-methylpyrrolidine-3-carbonitrile], the GI50 was 30 to 60 nM in assay [1]; 600 to 1000 nM in the assay with A431 cells; 30 to 60 nM in assay [2]; 30 to 60 nM in the assay with HCC827 cells; less than 30 nM in assay [3].

`C=CC(=O)N1CCC(Nc2cc3c(Nc4ccc(Oc5ccnc(N6CCC(F)(F)CC6)c5)cc4F)ncnc3cc2OC)CC1` [Example 218, 1-(4-((4-((4-((2-(4,4-difluoropiperidin-1-yl)pyridin-4-yl)oxy)-2-fluorophenyl)amino)-7-methoxyquinazolin-6-yl)amino)piperidin-1-yl)prop-2-en-1-one]: the GI50 in assay [1] was 30 to 60 nM; in the assay with A431 cells, not below 1000 nM; in assay [2], 30 to 60 nM; in the assay on HCC827 cells, 100 to 300 nM; in assay [3], 30 to 60 nM.

In the case of `C=CC(=O)N1CCC(Oc2cc3c(Nc4ccc(Oc5ccnc(N6C[C@H]7COC[C@H]7C6)c5)cc4F)ncnc3cc2OC)CC1` [Compound 165, 1-(4-((4-((2-fluoro-4-((2-((3aR,6aS)-tetrahydro-1H-furo[3,4-c]pyrrol-5(3H)-yl)pyridin-4-yl)oxy)phenyl)amino)-7-methoxyquinazolin-6-yl)oxy)piperidin-1-yl)prop-2-en-1-one], the GI50 was less than 30 nM in assay [1]; not below 1000 nM in the assay with A431 cells; 30 to 60 nM in assay [2]; 300 to 600 nM with HCC827 cells; less than 30 nM in assay [3].

As for `C=CC(=O)N1CCC(Nc2cc3c(Nc4ccc(Oc5ccnc(N6CCC(C(F)(F)F)C6)c5)cc4F)ncnc3cc2OC)CC1` (centres unmarked) [Compound 150, 1-(4-((4-((2-fluoro-4-((2-(3-(trifluoromethyl)pyrrolidin-1-yl)pyridin-4-yl)oxy)phenyl)amino)-7-methoxyquinazolin-6-yl)amino)piperidin-1-yl)prop-2-en-1-one], the GI50 in assay [1] is less than 30 nM; in the assay with A431 cells it was 100 to 300 nM; in assay [2] it was less than 30 nM; in the assay with HCC827 cells, less than 30 nM; in assay [3], less than 30 nM.

For the molecule `C=CC(=O)N1CCC(Nc2cc3c(Nc4ccc(Oc5ccnc(-n6cc(C)cn6)n5)cc4F)ncnc3cc2OC)CC1` [Example 39, 1-(4-((4-((2-fluoro-4-((2-(4-methyl-1H-pyrazol-1-yl)pyrimidin-4-yl)oxy)phenyl)amino)-7-methoxyquinazolin-6-yl)amino)piperidin-1-yl)prop-2-en-1-one], the GI50 is less than 30 nM in assay [1]; 300 to 600 nM in the assay with A431 cells; less than 30 nM in assay [2]; 60 to 100 nM with HCC827 cells; less than 30 nM in assay [3].

As to `C=CC(=O)N1CCC(Nc2cc3c(Nc4ccc(Oc5ccnc(-c6cccc(C)c6)c5)cc4F)ncnc3cc2OC)CC1` [Example 234, 1-(4-((4-((2-fluoro-4-((2-(m-tolyl)pyridin-4-yl)oxy)phenyl)amino)-7-methoxyquinazolin-6-yl)amino)piperidin-1-yl)prop-2-en-1-one], the GI50 in assay [1] is less than 30 nM; with A431 cells, 300 to 600 nM; in assay [2], less than 30 nM; in the assay with HCC827 cells, 60 to 100 nM; in assay [3], 30 to 60 nM.

On to `C=C(F)C(=O)N1CCC(Nc2cc3c(Nc4ccc(Oc5ccn(-c6cnc(C)c(F)c6)n5)cc4F)ncnc3cc2OC)CC1` [Example 23, 2-fluoro-1-(4-((4-((2-fluoro-4-((1-(5-fluoro-6-methylpyridin-3-yl)-1H-pyrazol-3-yl)oxy)phenyl)amino)-7-methoxyquinazolin-6-yl)amino)piperidin-1-yl)prop-2-en-1-one], for which the 50% growth inhibitory concentration (GI50) was not below 1000 nM in assay [1]; not below 1000 nM in the assay with A431 cells; 600 to 1000 nM in assay [2]; not below 1000 nM with HCC827 cells; not below 1000 nM in assay [3].

Take `C=CC(=O)N1CC[C@H](Nc2cc3c(Nc4ccc(Oc5ccn(-c6cnc(OC)nc6)n5)cc4F)ncnc3cc2OC)C1` [Compound 8, (S)-1-(3-((4-((2-fluoro-4-((1-(2-methoxypyrimidin-5-yl)-1H-pyrazol-3-yl)oxy)phenyl)amino)-7-methoxyquinazolin-6-yl)amino)pyrrolidin-1-yl)prop-2-en-1-one]: the GI50 is 100 to 300 nM in assay [1]; 300 to 600 nM with A431 cells; 30 to 60 nM in assay [2]; 100 to 300 nM in the assay on HCC827 cells; 30 to 60 nM in assay [3].

In the case of `C=CC(=O)N1CCC(Nc2cc3c(Nc4ccc(Oc5ccnc(N6CCC[C@@H](OC)C6)c5)cc4)ncnc3cc2OC)CC1` [Example 230, (R)-1-(4-((7-methoxy-4-((4-((2-(3-methoxypiperidin-1-yl)pyridin-4-yl)oxy)phenyl)amino)quinazolin-6-yl)amino)piperidin-1-yl)prop-2-en-1-one], the GI50 was less than 30 nM in assay [1]; not below 1000 nM in the assay on A431 cells; less than 30 nM in assay [2]; 300 to 600 nM with HCC827 cells; 30 to 60 nM in assay [3].

`C=CC(=O)N1CCC(Oc2cc3c(Nc4ccc(Oc5ccnc(N6CC[C@@H](N(C)C)C6)c5)cc4F)ncnc3cc2OC)CC1` [Example 162, (R)-1-(4-((4-((4-((2-(3-(dimethylamino)pyrrolidin-1-yl)pyridin-4-yl)oxy)-2-fluorophenyl)amino)-7-methoxyquinazolin-6-yl)oxy)piperidin-1-yl)prop-2-en-1-one]: the GI50 in assay [1] was 100 to 300 nM; with A431 cells, not below 1000 nM; in assay [2], 100 to 300 nM; with HCC827 cells, 100 to 300 nM; in assay [3] it was 100 to 300 nM.

For the molecule `C=CC(=O)N1CCC(Nc2cc3c(Nc4ccc(Oc5ccn(-c6cnc(C)c(C#N)c6)n5)cc4F)ncnc3cc2OC)CC1` [Compound 11, 5-(3-(4-((6-((1-acryloylpiperidin-4-yl)amino)-7-methoxyquinazolin-4-yl)amino)-3-fluorophenoxy)-1H-pyrazol-1-yl)-2-methylnicotinonitrile], the GI50 fell in the range of 30 to 60 nM in assay [1]; 100 to 300 nM with A431 cells; 60 to 100 nM in assay [2]; 60 to 100 nM in the assay on HCC827 cells; 30 to 60 nM in assay [3].

In the case of `C=CC(=O)N1CCC(Nc2cc3c(Nc4ccc(Oc5ccnc(N6CCO[C@H](C)C6)c5)cc4F)ncnc3cc2OC)CC1` [Example 133, (R)-1-(4-((4-((2-fluoro-4-((2-(2-methylmorpholino)pyridin-4-yl)oxy)phenyl)amino)-7-methoxyquinazolin-6-yl)amino)piperidin-1-yl)prop-2-en-1-one], the 50% growth inhibitory concentration (GI50) is less than 30 nM in assay [1]; 600 to 1000 nM in the assay with A431 cells; less than 30 nM in assay [2]; 100 to 300 nM in the assay on HCC827 cells; less than 30 nM in assay [3].

For `C=CC(=O)N1CCC(Nc2cc3c(Nc4ccc(Oc5ccnc(N6CCN(C)C(=O)C6)c5)cc4F)ncnc3cc2OC)CC1` [Example 223, 4-(4-(4-((6-((1-acryloylpiperidin-4-yl)amino)-7-methoxyquinazolin-4-yl)amino)-3-fluorophenoxy)pyridin-2-yl)-1-methylpiperazin-2-one], the GI50 lay within 100 to 300 nM in assay [1]; 600 to 1000 nM in the assay on A431 cells; 100 to 300 nM in assay [2]; 300 to 600 nM in the assay with HCC827 cells; 100 to 300 nM in assay [3].
